For one compound, Ki results are on record in PMC6868039, “Maltose Processing and Not β-Amylase Activity Curtails Hydrolytic Starch Degradation in the CAM Orchid Phalaenopsis” (Frontiers in Plant Science, 2019).

This test has as its target T1, PEPC (phosphoenolpyruvate carboxylase).
T1 construct: native enzyme in desalted (Sephadex G-25) crude leaf extract, not purified; phosphorylation state varies over the day
The experiment in a line: NADH oxidation at […] nm, coupled to endogenous MDH in desalted leaf extract. The following applies: daytime leaves (mean of fluctuating values); 2.5 mM PEP, 10 mM NaHCO3, 5 mM MgCl2, pH 7.5, 25 °C; crude desalted extract. The format is biochemical, Phalaenopsis hybrid cultivar.

As to `O=C(O)C[C@H](O)C(=O)O` [malic acid], the Ki (as a rule, a measure of affinity in units of concentration, obtained from inhibition or displacement) stood at 6 ± 3 mM.
